# Experimental data published in patent publication US4892870A, “Oxaza heterocycles and pharmaceutical compositions containing same” (Biofor, Ltd., priority 1988, dated 1990).
# Tests used:
# [1] = cited from G. Moore, U.S. Pat. No. 4,337,345; cited from earlier work
# hind paw edema [2] = assay: Adjuvant Arthritis Assay; Immunomodulatory; format: in vivo, Lewis female rats; conditions: 50 mg/kg oral, Day 5 to 9 inclusive; edema on Day 15
# Protocol: Immunomodulatory: This activity was determined by using a Modified Adjuvant Assay procedure in which female rats were injected with Mycobacterium butyricum to induce hind paw edema. The test compounds were administered orally and the difference in volume between dosed and non-dosed paws was determined.
# Lewis female rats were injected in the tail subcutaneously with Mycobacterium butyricum (0.75 mg in 0.1 ml light mineral oil, Fisher) on Day Zero. Prior to injection the volumes of the left and right rear paws were measured by mercury displacement. All rats were dosed orally with vehicle or test compounds on Day 5 to 9 inclusive. The volume of both hind paws were determined on Day 15 and the percent inhibitions were calculated based upon average edema on Day 15 relative to the edema mean in the control group.
# acetylcholine writhing = assay: Acetylcholine Writhing Assay (analgesic); format: in vivo, male CD-1 mice; conditions: Mus musculus; oral, 45 min before intraperitoneal acetylcholine; writhes counted 10 minutes
# Protocol: Analgesic: The "Acetylcholine Writhing Assay" (ACH) of collier et al [Nature: Vol. 204: page 1316 (1964)] was employed. In this study the test compounds were administered orally to mice and 45 minutes later the mice were injected with acetylcholine. The frequency of writhing was counted in each animal and the response elicited in the drug-treated mice was compared with the response of those given acetylcholine alone.
# Analgesic activity was evaluated via the mouse acetylcholine writhing test using a modification of the procedure described by Collier, et al in Nature (New Biol.) Vol. 204; page 1316 (1964) and Br. J. Pharmacol, Chemother, Vol. 32: page 295 (1968). Each test group consisted of ten male CD-1 mice (Charles River Laboratories) weighing 18-28 grams each. Test compounds suspended in a mixture of 0.25% methylcellulose solution […] were administered orally by gavage and fort five minutes later the mice were injected intraperitoneally with acetylcholine (0.55 mg/ml in 0.25% methylcellulose). The number of writhes in each group of mice were counted for 10 minutes immediately following the injection of acetylcholine and the percent inhibition was calculated as follows: [formula] Four dose levels were used to calculate the ED50. of each test compounds.
# hind paw edema [3] = assay: Adjuvant Arthritis Assay; Developing (percent inhibition of hind paw edema); format: in vivo, female Lewis rats; conditions: Rattus norvegicus, 96 h, once daily for 4 days in 0.25% methylcellulose, paw volumes on fifth day
# Protocol: Anti-Inflammatory: This activity was evaluated via a modification of the Adjuvant Arthritis Assay (AA) described by S. Wong et al in "The Journal of Pharmacology and Experimental Therapeutics", Vol. 185. […] This assay measures the ability of the test compound to antogonize local edema, a characteristic of the inflammatory response. […] The left and right rear paws of female Lewis rats (Charles River Laboratories) weighing 160-180 grams each were measured by mercury displacement prior to injection (Day Zero). Adjuvant arthritis was induced in this rat colony by subcutaneous injection of Mycobacterium butyricum (0.75 mg in 0.1 ml light mineral oil, Fisher) using an automated Cornwall syringe. On days 11-15 post-adjuvant the injected animals with 0.25 to 0.75 ml. paw edema were selected and distributed evenly, according to edema size, into control and experimental groups of ten rats each. Vehicle control and drug treatments were assigned to the groups at random. The assay was performed using a variable dose level for each test compound per kilogram per day in 0.25% methylcellulose. vehicle. All animals were dosed once daily for 4 days and on the fifth day both hind paw volumes were again measured using mercury displacement. The hind paw edema was determined for each rat by subtracting the hind paw volume measured on Day Zero from the hind paw volume measured on the fifth day of the study. Group means were determined and the drug effect was calculated as percent inhibition of the hind paw edema according to the following equation: [formula] […] The known anti-inflammatory NAPROXEN was also tested for comparison purposes.
# LD50 = conditions: rat, in vivo, po
# yeast-induced fever = assay: Antipyretic Evaluation (yeast-induced fever); format: in vivo, male Sprague-Dawley rats; conditions: 300 mg/kg oral; Example 1 in olive oil, Example 2 in 0.25% methylcellulose; all decreases significant at p <0.05 (paired-samples Student's t-Test)
# Protocol: Antipyretic: This activity was evaluated by creating a yeast-induced fever in rats according to a modified method of the procedure described by Loux e al in "Toxicology and Applied Pharmacology", Vol. 22: page 672 (1972). In this assay rats injected with yeast in distilled water were dosed with test compounds, aspirin (positive control) and a vehicle (negative control) and the observed differences in body temperature were analyzed statistically.
# Antipyretic activity was evaluated using a modification of the test described by Loux et al, in Toxicology and Applied Pharmacology, 22:672(1972), that is, yeast-induced fever in rats. Each test group consisted of ten male Sprague-Dawley rats (Charles River Laboratories), weighing 180-225 grams each. Eighteen hours prior to compound administration the rats were weighed and body temperatures were recorded. Food was removed with water available ad libitum.
# Each animal was injected subcutaneously into the central dorsal region with five (5.0) ml portions of a 15% (150 mg/1.0 ml) suspension of Fleischman's yeast in distilled water.
# Test compounds suspended in 0.25% methylcellulose (0.25% MC) or olive oil were administered orally by gavage nineteen hours following the yeast injection. Body temperatures were taken and recorded one hour after compound administration. Aspirin (300 mg/kg) was the reference standard drug administered with each antipyretic study. The mean temperature of the compound-treated groups, positive control group (Aspirin) and negative control group (vehicle) were calculated at 18 hours and 20 hours. The data was analyzed statistically using a paired-samples Student's t-Test.
# paw edema = assay: Adjuvant Arthritis Assay; Established (chronic anti-inflammatory and antiarthritic); format: in vivo, rats; conditions: Rattus norvegicus, 552 h, oral once daily on days 19-22, paw volumes day 23
# Protocol: In this assay the differences between dosed and non-dosed paw values were determined postadjuvant. Chronic anti-inflammatory and antiarthritic activity were evaluated using the method described by S. Wong in "Tolmetin: A New Non-steroidal Anti-inflammatory Agent" Editor: John R. Ward, Excerpta Medica, N.J. pp. 1-27 (1976). On day 19 post adjuvant all rats were evenly distributed according to edema size. Doses of treatment or vehicle were administered orally to all rats once daily on days 19-22 inclusive. Final paw volumes were determined on day 23 post adjuvant.
smiles,measurement,setting,value
"CC(C)(C)c1cc(C(=O)c2cc(C(=O)O)ccc2Cl)cc(C(C)(C)C)c1O [4-(5-carboxy-2-chlorobenzoyl)-2,6-di-(tert-butyl)phenol]",anti-inflammatory activity,[1],absence of anti-inflammatory activity
"CN1OCCC(=Cc2cc(C(C)(C)C)c(O)c(C(C)(C)C)c2)C1=O [Example 2, Dihydro-4-(3,5-Di-tert-Butyl-4-Hydroxybenzylidene)-2-Methyl-2H-1,2-Oxazin-3(4H)-one]",% Inhibition,hind paw edema [2],39%
same,ED50,acetylcholine writhing,2.8 mg/kg
same,ED50,hind paw edema [3],7 mg/kg
same,LD50,LD50,> 1000 mg/kg
same,"Change in Temperature, 18-20 Hour Period",yeast-induced fever,-1.33 °C
same,ED50,paw edema,8 mg/kg
"CC(C)(C)c1cc(C(N)=O)cc(C(C)(C)C)c1O [4-carboxamido-2,6-di-(tert-butyl)phenol]",anti-inflammatory activity,[1],absence of anti-inflammatory activity
"CC(=O)Oc1ccccc1C(=O)O [Aspirin, reference compound]","Change in Temperature, 18-20 Hour Period",yeast-induced fever,-2.05 °C
"CC(C)(C)c1cc(C(=O)c2ccccc2Cl)cc(C(C)(C)C)c1O [4-(2-chlorobenzoyl)-2,6-di-(tert-butyl)phenol]",anti-inflammatory activity,[1],absence of anti-inflammatory activity
"CC(C)(C)c1cccc(C(C)(C)C)c1O [2,6-di-(tert-butyl)phenol]",anti-inflammatory activity,[1],absence of anti-inflammatory activity
"CC(=O)c1cc(C(C)(C)C)c(O)c(C(C)(C)C)c1 [4-acetyl-2,6-(di-tert-butyl)phenol]",anti-inflammatory activity,[1],absence of anti-inflammatory activity
"CN1OC/C(=C\c2cc(C(C)(C)C)c(O)c(C(C)(C)C)c2)C1=O [Example 1 (E-Isomer), 4-(3,5-di-tert-butyl-4-hydroxybenzylidene)-2-methyl-3-isoxazolidinone]",ED50,acetylcholine writhing,18 mg/kg
same,ED50,hind paw edema [3],20 mg/kg
"Cc1cc(C(C)(C)C)c(O)c(C(C)(C)C)c1 [3,5-di(tert-butyl)-4-hydroxytoluene]",anti-inflammatory activity,[1],little or no value as an anti-inflammatory agent
"CN1OCC(=Cc2cc(C(C)(C)C)c(O)c(C(C)(C)C)c2)C1=O [Example 1, 4-(3,5-Di-tert-Butyl-4-Hydroxybenzylidene)-2-Methyl-3-Isoxazolidinone; E and Z Isomers]",% Inhibition,hind paw edema [2],43%
same,LD50,LD50,> 1000 mg/kg
same,"Change in Temperature, 18-20 Hour Period",yeast-induced fever,-1.33 °C
same,ED50,paw edema,44 mg/kg
"COc1ccc2cc([C@H](C)C(=O)O)ccc2c1 [NAPROXEN, reference compound]",ED50,acetylcholine writhing,6.2 mg/kg
same,ED50,hind paw edema [3],28 mg/kg
same,ED50,paw edema,28 mg/kg
"CC(C)(C)c1cc(S(=O)(=O)c2ccccc2)cc(C(C)(C)C)c1O [2,6-di-(tert-butyl)-4-(phenylsulfonyl)phenol]",anti-inflammatory activity,[1],absence of anti-inflammatory activity
"CN1OC/C(=C/c2cc(C(C)(C)C)c(O)c(C(C)(C)C)c2)C1=O [Example 1 (Z-Isomer), 4-(3,5-di-tert-butyl-4-hydroxybenzylidene)-2-methyl-3-isoxazolidinone]",ED50,hind paw edema [3],36 mg/kg
"CCCCCCCCc1cc(C(C)(C)C)c(O)c(C(C)(C)C)c1 [4-n-octyl-2,6-di-(tert-butyl)phenol]",anti-inflammatory activity,[1],absence of anti-inflammatory activity
